Earlier results as cited in patent US20130085177A1, “COSMETIC COMPOSITION BASED ON ELLAGIC ACID OR A DERIVATIVE THEREOF AND ON A PARTICULAR MIXTURE OF SURFACTANTS” (priority 2010, published 2013).

solubility in water and in the solvents and oils commonly used in cosmetic compositions: very low
SMILES: O=c1oc2c(O)c(O)cc3c(=O)oc4c(O)c(O)cc1c4c23 [ellagic acid, 2,3,7,8-tetrahydroxy(1)benzo-pyrano(5,4,3-cde)(1)benzopyran-5,10-dione]
